The text below walks through data of US9193720B2, “Pyridin-3-yl acetic acid derivatives as inhibitors of human immunodeficiency virus replication” (priority 2014, dated 2015).

One may read the EC50 as the midpoint of the concentration-response curve. Low readings indicate an effect from little substance, high ones a need for much substance.

The test concerns NL-RLuc virus. Put plainly: Inhibition of HIV Replication (NL-RLuc luciferase reporter virus in MT-2 cells). In kind it is cell-based. The settings on record: Human immunodeficiency virus 1, MT2, 120 h. The text has this:
Inhibition of HIV Replication:
A recombinant NL-RLuc proviral clone was constructed in which a section of the nef gene from NL4-3 was replaced with the Renilla Luciferase gene. This virus is fully infectious and can undergo multiple cycles of replication in cell culture. In addition, the luciferous reporter provides a simple and easy method for quantitating the extent of virus growth and consequently, the antiviral activity of test compounds. The plasmid pNLRLuc contains the proviral NL-Rluc DNA cloned into pUC18 at the PvuII site. The NL-RLuc virus was prepared by transfection of 293T cells with the plasmid pNLRLuc. Transfections were performed using the LipofectAMINE PLUS kit from Invitrogen (Carlsbad, Calif.) according to the manufacturer and the virus generated was titered in MT-2 cells. For susceptibility analyses, the titrated virus was used to infect MT-2 cells in the presence of compound, and after 5 days of incubation, cells were processed and quantitated for virus growth by the amount of expressed luciferase. Assay media was RPMI 1640 supplemented with 10% heat inactivated fetal bovine serum (FBS), 100 units/ml penicillin G/100 units/ml streptomycin, 10 mM HEPES buffer pH 7.55 and 2 mM L-glutamine. The results from at least 2 experiments were used to calculate the EC50 values. Luciferase was quantitated using the Dual Luciferase kit from Promega (Madison, Wis.). Susceptibility of viruses to compounds was determined by incubation in the presence of serial dilutions of the compound. The 50% effective concentration (EC50) was calculated by using the exponential form of the median effect equation where (Fa)=1/[1+(ED50/drug conc.)^m] (Johnson V A, Byington R T. Infectivity Assay. In Techniques in HIV Research. ed. Aldovini A, Walker B D. 71-76. New York: Stockton Press. 1990).
(In general: In a reporter assay the amount or activity of a reporter protein is the signal.)
In turn, `Cc1nc(C)c([C@H](OC(C)(C)C)C(=O)O)c(N2CCC(C)(C)CC2)c1-c1ccc(OCCc2ccc(Cl)cc2)cc1` [Example 26, (S)-2-(tert-butoxy)-2-(5-(4-(4-chlorophenethoxy)phenyl)-4-(4,4-dimethylpiperidin-1-yl)-2,6-dimethylpyridin-3-yl)acetic acid] had a 50% effective concentration (EC50) of 17 nM.

`Cc1nc(C)c([C@H](OC(C)(C)C)C(=O)O)c(N2CCC(C)(C)CC2)c1-c1ccc(OCCc2ccc(Cl)c(F)c2)cc1` [Example 27, (S)-2-(tert-butoxy)-2-(5-(4-(4-chloro-3-fluorophenethoxy)phenyl)-4-(4,4-dimethylpiperidin-1-yl)-2,6-dimethylpyridin-3-yl)acetic acid]: the EC50 came out at 12 nM. The value for `Cc1ccc(CCOc2ccc(-c3c(C)nc(C)c([C@H](OC(C)(C)C)C(=O)O)c3N3CCC(C)(C)CC3)cc2)cc1` [Example 28, (S)-2-(tert-butoxy)-2-(4-(4,4-dimethylpiperidin-1-yl)-2,6-dimethyl-5-(4-(4-methylphenethoxy)phenyl)pyridin-3-yl)acetic acid] was 19 nM; that for `Cc1nc(C)c([C@H](OC(C)(C)C)C(=O)O)c(N2CCC(C)(C)CC2)c1-c1ccc(OCC(C)(C)c2ccc(Cl)cc2)cc1` [Example 29, (S)-2-(tert-butoxy)-2-(5-(4-(2-(4-chlorophenyl)-2-methylpropoxy)phenyl)-4-(4,4-dimethylpiperidin-1-yl)-2,6-dimethylpyridin-3-yl)acetic acid] was 15 nM. `Cc1nc(C)c([C@H](OC(C)(C)C)C(=O)O)c(N2CCC(C)(C)CC2)c1-c1ccc(OCCc2ccc3ccccc3c2)cc1` [Example 30, (S)-2-(tert-butoxy)-2-(4-(4,4-dimethylpiperidin-1-yl)-2,6-dimethyl-5-(4-(2-(naphthalen-2-yl)ethoxy)phenyl)pyridin-3-yl)acetic acid] came in with an EC50 of 6 nM.

Consider `Cc1nc(C)c([C@H](OC(C)(C)C)C(=O)O)c(N2CCC(C)(C)CC2)c1-c1ccc(OCCc2ccc(OCc3ccccc3)cc2)cc1` [Example 31, (S)-2-(5-(4-(4-(benzyloxy)phenethoxy)phenyl)-4-(4,4-dimethylpiperidin-1-yl)-2,6-dimethylpyridin-3-yl)-2-(tert-butoxy)acetic acid], for which the concentration for a half-maximal effect (EC50) stood at 47 nM. Take `Cc1nc(C)c([C@H](OC(C)(C)C)C(=O)O)c(N2CCC(C)(C)CC2)c1-c1ccc(OCC(C)c2ccc(F)cc2)cc1` (stereo partly drawn) [Example 32, (2S)-2-(tert-butoxy)-2-(4-(4,4-dimethylpiperidin-1-yl)-5-(4-(2-(4-fluorophenyl)propoxy)phenyl)-2,6-dimethylpyridin-3-yl)acetic acid]: the EC50 worked out at 11 nM. The same measure for `Cc1nc(C)c([C@H](OC(C)(C)C)C(=O)O)c(N2CCC(C)(C)CC2)c1-c1ccc(OCCc2ccccn2)cc1` [Example 33, (S)-2-(tert-butoxy)-2-(4-(4,4-dimethylpiperidin-1-yl)-2,6-dimethyl-5-(4-(2-(pyridin-2-yl)ethoxy)phenyl)pyridin-3-yl)acetic acid]: 1 nM; for `CO[C@H](COc1ccc(-c2c(C)nc(C)c([C@H](OC(C)(C)C)C(=O)O)c2N2CCC(C)(C)CC2)cc1)c1ccccc1` [Example 34, (S)-2-(tert-butoxy)-2-(4-(4,4-dimethylpiperidin-1-yl)-5-(4-((S)-2-methoxy-2-phenylethoxy)phenyl)-2,6-dimethylpyridin-3-yl)acetic acid]: 11 nM; for `CO[C@@H](COc1ccc(-c2c(C)nc(C)c([C@H](OC(C)(C)C)C(=O)O)c2N2CCC(C)(C)CC2)cc1)c1ccccc1` [Example 35, (S)-2-(tert-butoxy)-2-(4-(4,4-dimethylpiperidin-1-yl)-5-(4-((R)-2-methoxy-2-phenylethoxy)phenyl)-2,6-dimethylpyridin-3-yl)acetic acid]: 13 nM. `COc1cccc(CCOc2ccc(-c3c(C)nc(C)c([C@H](OC(C)(C)C)C(=O)O)c3N3CCC(C)(C)CC3)cc2)c1` [Example 36, (S)-2-(tert-butoxy)-2-(4-(4,4-dimethylpiperidin-1-yl)-5-(4-(3-methoxyphenethoxy)phenyl)-2,6-dimethylpyridin-3-yl)acetic acid] had an EC50 of 2 nM. Regarding `Cc1nc(C)c([C@H](OC(C)(C)C)C(=O)O)c(N2CCC(C)(C)CC2)c1-c1ccc(OCCc2ccncc2)cc1` [Example 37, (S)-2-(tert-butoxy)-2-(4-(4,4-dimethylpiperidin-1-yl)-2,6-dimethyl-5-(4-(2-(pyridin-4-yl)ethoxy)phenyl)pyridin-3-yl)acetic acid], the EC50 turned out to be 1 nM.

The compound `Cc1nc(C)c([C@H](OC(C)(C)C)C(=O)O)c(N2CCC(C)(C)CC2)c1-c1ccc(OCCc2cccc3ccccc23)cc1` [Example 38, (S)-2-(tert-butoxy)-2-(4-(4,4-dimethylpiperidin-1-yl)-2,6-dimethyl-5-(4-(2-(naphthalen-1-yl)ethoxy)phenyl)pyridin-3-yl)acetic acid] returned an EC50 of 6 nM. `Cc1nc(C)c([C@H](OC(C)(C)C)C(=O)O)c(N2CCC(C)(C)CC2)c1-c1ccc(OCCc2ccccc2)cc1` [Example 39, (S)-2-(tert-butoxy)-2-(4-(4,4-dimethylpiperidin-1-yl)-2,6-dimethyl-5-(4-phenethoxyphenyl)pyridin-3-yl)acetic acid] came in with an EC50 of 2 nM. Turning to `Cc1ncsc1CCOc1ccc(-c2c(C)nc(C)c([C@H](OC(C)(C)C)C(=O)O)c2N2CCC(C)(C)CC2)cc1` [Example 40, (S)-2-(tert-butoxy)-2-(4-(4,4-dimethylpiperidin-1-yl)-2,6-dimethyl-5-(4-(2-(4-methylthiazol-5-yl)ethoxy)phenyl)pyridin-3-yl)acetic acid], the EC50 amounted to 1 nM.

`Cc1nc(C)c([C@H](OC(C)(C)C)C(=O)O)c(N2CCC(C)(C)CC2)c1-c1ccc(OCCc2cccnc2)cc1` [Example 41, (S)-2-(tert-butoxy)-2-(4-(4,4-dimethylpiperidin-1-yl)-2,6-dimethyl-5-(4-(2-(pyridin-3-yl)ethoxy)phenyl)pyridin-3-yl)acetic acid] had an EC50 of 1 nM. `Cc1nc(CCOc2ccc(-c3c(C)nc(C)c([C@H](OC(C)(C)C)C(=O)O)c3N3CCC(C)(C)CC3)cc2)cs1` [Example 42, (S)-2-(tert-butoxy)-2-(4-(4,4-dimethylpiperidin-1-yl)-2,6-dimethyl-5-(4-(2-(2-methylthiazol-4-yl)ethoxy)phenyl)pyridin-3-yl)acetic acid] registered a 50% effective concentration (EC50) of 4 nM. In turn, `Cc1nc(C)c([C@H](OC(C)(C)C)C(=O)O)c(N2CCC(C)(C)CC2)c1-c1ccc(OCc2cncs2)cc1` [Example 43, (S)-2-(tert-butoxy)-2-(4-(4,4-dimethylpiperidin-1-yl)-2,6-dimethyl-5-(4-(thiazol-5-ylmethoxy)phenyl)pyridin-3-yl)acetic acid] displayed an EC50 of 14 nM. The value for `Cc1nc(C)c(COc2ccc(-c3c(C)nc(C)c([C@H](OC(C)(C)C)C(=O)O)c3N3CCC(C)(C)CC3)cc2)s1` [Example 44, (S)-2-(tert-butoxy)-2-(4-(4,4-dimethylpiperidin-1-yl)-5-(4-((2,4-dimethylthiazol-5-yl)methoxy)phenyl)-2,6-dimethylpyridin-3-yl)acetic acid] was 12 nM.

For the compound `Cc1nc(-c2ccccc2)sc1COc1ccc(-c2c(C)nc(C)c([C@H](OC(C)(C)C)C(=O)O)c2N2CCC(C)(C)CC2)cc1` [Example 45, (S)-2-(tert-butoxy)-2-(4-(4,4-dimethylpiperidin-1-yl)-2,6-dimethyl-5-(4-((4-methyl-2-phenylthiazol-5-yl)methoxy)phenyl)pyridin-3-yl)acetic acid], a half-maximal effect (EC50) was put at 29 nM. The value for `COc1cccc(CCOc2ccc(-c3c(C)nc(C)c([C@H](OC(C)(C)C)C(=O)O)c3N3CCC(C)(C)CC3)cc2OCCc2cccc(OC)c2)c1` [Example 46, (S)-2-(5-(3,4-bis(3-methoxyphenethoxy)phenyl)-4-(4,4-dimethylpiperidin-1-yl)-2,6-dimethylpyridin-3-yl)-2-(tert-butoxy)acetic acid] was 14 nM; that for `Cc1nc(C)c([C@H](OC(C)(C)C)C(=O)O)c(N2CCC(C)(C)CC2)c1-c1ccc(OCc2cnc(Cl)s2)cc1` [Example 47, (S)-2-(tert-butoxy)-2-(5-(4-((2-chlorothiazol-5-yl)methoxy)phenyl)-4-(4,4-dimethylpiperidin-1-yl)-2,6-dimethylpyridin-3-yl)acetic acid] was 18 nM; that for `Cc1nc(C)c(CCOc2ccc(-c3c(C)nc(C)c([C@H](OC(C)(C)C)C(=O)O)c3N3CCC(C)(C)CC3)cc2)s1` [Example 48, (S)-2-(tert-butoxy)-2-(4-(4,4-dimethylpiperidin-1-yl)-5-(4-(2-(2,4-dimethylthiazol-5-yl)ethoxy)phenyl)-2,6-dimethylpyridin-3-yl)acetic acid] was 1 nM. `Cc1nc(C)c([C@H](OC(C)(C)C)C(=O)O)c(N2CCC(C)(C)CC2)c1-c1ccc(OCC(C)(C)c2ccc(F)cc2)cc1` [Example 49, (S)-2-(tert-butoxy)-2-(4-(4,4-dimethylpiperidin-1-yl)-5-(4-(2-(4-fluorophenyl)-2-methylpropoxy)phenyl)-2,6-dimethylpyridin-3-yl)acetic acid] had an EC50 of 34 nM.
